This assay has as its system subjects with major depressive disorder (MDD) who were inadequate responders to citalopram. Nature of the assay: Individual MADRS factor (subscale) scores, exploratory analysis. In kind it is in vivo, human. The protocol: In more detail, a multi-center double-blind, randomized, placebo-controlled, parallel group, flexible dose titration study of TC-5214 as adjunctive therapy in subjects with major depressive disorder (MDD) who were inadequate responders to citalopram was conducted in centers in the US and India. The study consisted of a screening period, baseline/washout period, open-label phase, double-blind phase, and a follow-up visit. Subject participation in the study could continue for up to 16 weeks of treatment. Following a washout period of up to 28 days for other antidepressants, subjects with MDD and a MADRS total score >/=28 and a Clinical Global Impression-Severity (CGI-S) score >/=4 were enrolled on Day 1 into an open-label citalopram-only phase of the study. This phase lasted 8 weeks, with citalopram (CIT) dose increased from a once-daily dose of 20 mg (Day 1 through Week 4) to 40 mg (Week 4 through Week 8). A total of 579 subjects entered the open-label citalopram phase. At Week 8, subjects who tolerated 40 mg CIT, but whose MADRS score was reduced <50% from baseline and no lower than 17, and CGI-S≧4, were considered inadequate responders. These subjects (n=270) were randomized in a double-blind fashion to receive either placebo or TC-5214-23 as add-on therapy to continued CIT. The double-blind phase of the study also lasted 8 weeks (Week 8 to Week 16). Study drug, TC-5214-23 or placebo, was started at 2 mg daily (1 mg twice per day [BID] dosing), added on to continuing CIT (40 mg PO qd). After 2 weeks of treatment, the dose of TC-5214 could be increased to 4 mg (2 mg BID) or continued unchanged, with up-titration based upon good tolerability and inadequate therapeutic response. After a further 2 weeks, the dose of TC-5214 could be increased again to 8 mg (4 mg BID) if judged appropriate by the investigator, based upon good tolerability and inadequate therapeutic response. At any time during the double-blind phase of the study, placebo or TC-5214-23 could be reduced to the previous dose level following the emergence of unacceptable adverse events (AEs). […] At this follow-up, any signs or symptoms of relapse were evaluated. If a subject was prematurely discontinued from the study between Week 8 and Week 16 for any reason, the investigator was to make every effort to perform all evaluations as per protocol, assuming the subject had reached the end of the double-blind add-on treatment phase. These evaluations were to be made as soon as possible and within 2 weeks of discontinuation. […] There was no meaningful difference in results as a function of age, gender, site, or smoking status. The exploratory analysis assessed the differences in the treatment groups in change from Week 8 (double-blind baseline) to Week 16 for each individual MADRS factor score.

The mark [1] stands for this setting: ITT population, Week 8 (double-blind baseline) to Week 16.

On to `CNC1(C)C2CCC(C2)C1(C)C` (stereo in doubt) [TC-5214, (S)—N,2,3,3-tetramethylnorbornan-2-amine], for which, under setting [1], the “MADRS item 1 Apparent Sadness: Adjusted Mean Change TC-5214—Placebo (SD)” value is on record as −0.88 (1.26), the “MADRS item 1 Apparent Sadness: Effect Size” value turned out to be 0.70, the “MADRS item 2 Reported Sadness: Adjusted Mean Change TC-5214—Placebo (SD)” value was −0.88 (1.28) and the “MADRS item 2 Reported Sadness: Effect Size” value worked out at 0.69. Under setting [1], the “MADRS item 3 Inner Tension: Adjusted Mean Change TC-5214—Placebo (SD)” value is −0.79 (1.13), the “MADRS item 3 Inner Tension: Effect Size” value was 0.70, the “MADRS item 4 Reduced Sleep: Adjusted Mean Change TC-5214—Placebo (SD)” value is on record as −0.99 (1.40) and the “MADRS item 4 Reduced Sleep: Effect Size” value was determined as 0.71. Besides, under setting [1], the “MADRS item 5 Reduced Appetite: Adjusted Mean Change TC-5214—Placebo (SD)” value was −0.76 (1.30), the “MADRS item 5 Reduced Appetite: Effect Size” value is 0.58, the “MADRS item 6 Concentration Difficulties: Adjusted Mean Change TC-5214—Placebo (SD)” value was −0.70 (1.20) and the “MADRS item 6 Concentration Difficulties: Effect Size” value came out at 0.58. Under setting [1], the “MADRS item 7 Lassitude: Adjusted Mean Change TC-5214—Placebo (SD)” value is on record as −0.75 (1.20), the “MADRS item 7 Lassitude: Effect Size” value came out at 0.63, the “MADRS item 8 Inability to Feel: Adjusted Mean Change TC-5214—Placebo (SD)” value is reported as −0.76 (1.25) and the “MADRS item 8 Inability to Feel: Effect Size” value came out at 0.61. Besides, under setting [1], the “MADRS item 9 Pessimistic Thoughts: Adjusted Mean Change TC-5214—Placebo (SD)” value is −0.74 (1.18), the “MADRS item 9 Pessimistic Thoughts: Effect Size” value is on record as 0.63, the “MADRS item 10 Suicidal Thoughts: Adjusted Mean Change TC-5214—Placebo (SD)” value is listed as −0.29 (0.61) and the “MADRS item 10 Suicidal Thoughts: Effect Size” value is reported as 0.48. For the setting “ITT, result in words”, the “each MADRS subscale score change from baseline compared with placebo” value is given as “statistically significant decreases (improvements)”.

The values are drawn from US20120190752A1, “EXO-S-MECAMYLAMINE METHOD, USE, AND COMPOUND FOR TREATMENT” (Targacept Inc., priority 2009, published 2012).
